What follows are molecules tested against T1, FLT3 (Homo sapiens, UniProt P36888) (assay: Inhibition of FLT3, 33P-ATP kinase assay with filter-binding detection). Conditions: 33P-ATP 10 uM, 2 hours at room temperature, filter-binding method.
T1 sequence (P36888 27-993): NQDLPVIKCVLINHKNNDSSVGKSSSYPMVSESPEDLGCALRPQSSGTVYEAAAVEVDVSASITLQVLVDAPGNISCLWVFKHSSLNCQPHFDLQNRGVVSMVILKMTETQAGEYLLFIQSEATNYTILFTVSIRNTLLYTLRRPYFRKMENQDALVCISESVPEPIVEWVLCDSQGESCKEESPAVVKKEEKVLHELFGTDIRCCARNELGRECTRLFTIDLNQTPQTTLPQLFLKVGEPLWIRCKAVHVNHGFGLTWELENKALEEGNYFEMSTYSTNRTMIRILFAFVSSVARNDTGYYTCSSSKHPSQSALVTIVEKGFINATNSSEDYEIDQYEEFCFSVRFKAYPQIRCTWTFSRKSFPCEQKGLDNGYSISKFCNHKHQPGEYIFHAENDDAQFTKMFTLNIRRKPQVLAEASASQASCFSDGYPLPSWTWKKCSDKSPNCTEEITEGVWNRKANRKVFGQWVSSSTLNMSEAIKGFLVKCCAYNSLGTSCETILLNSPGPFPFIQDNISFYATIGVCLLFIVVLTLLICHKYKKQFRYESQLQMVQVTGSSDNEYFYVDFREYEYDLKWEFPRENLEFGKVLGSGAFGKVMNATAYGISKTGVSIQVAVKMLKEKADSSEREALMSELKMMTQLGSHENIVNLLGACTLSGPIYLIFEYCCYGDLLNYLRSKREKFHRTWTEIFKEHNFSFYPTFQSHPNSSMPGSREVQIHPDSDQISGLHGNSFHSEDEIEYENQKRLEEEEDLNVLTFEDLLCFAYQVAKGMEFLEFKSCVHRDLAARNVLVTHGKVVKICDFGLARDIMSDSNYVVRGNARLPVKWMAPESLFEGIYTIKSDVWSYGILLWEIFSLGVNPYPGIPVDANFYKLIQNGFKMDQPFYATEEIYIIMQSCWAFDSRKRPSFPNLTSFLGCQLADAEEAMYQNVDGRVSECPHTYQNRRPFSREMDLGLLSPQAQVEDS
Type: biochemical
Description: Prepare indicated substrate in freshly prepared Base Reaction Buffer (20 mM Hepes (pH 7.5), 10 mM MgCl2, 1 mM EGTA, 0.02% Brij35, 0.02 mg/ml BSA, 0.1 mM Na3VO4, 2 mM DTT, 1% DMSO). Deliver any required cofactors to the substrate solution above. Deliver indicated kinase into the substrate solution and gently mix. The testing compounds in DMSO was added into the kinase reaction mixture by Acoustic technology (Echo550; nanoliter range) and incubated for 20 minutes at room temperature. Deliver 33P-ATP (specific activity […]) into the reaction mixture to initiate the reaction. Incubate kinase reaction for 2 hours at room temperature. Reactions are spotted onto P81 ion exchange paper. Detect kinase activity by filter-binding method.
Inhibition of FLT3 with 4-Quinolone Derivatives

Structure (SMILES) | IC50 [nM]
O=c1c2cc(F)ccc2sc2c(NCCN3CCOCC3)nc3ccccc3c12 [compound 7756, 10-fluoro-6-((2-morpholinoethyl)amino)-12H-thiochromeno[2,3-c]quinolin-12-one] | > 1000
O=c1c2cc(Cl)ccc2sc2c(NCCCNCCO)nc3ccccc3c12 [compound 7701, 10-chloro-6-(3-(2-hydroxyethylamino)propylamino)-12H-thiochromeno[2,3-c]quinolin-12-one] | > 1000
O=c1c2cc(F)ccc2sc2c(NCCCNCCO)nc3ccc(F)cc3c12 [compound 7408, 2,10-difluoro-6-(3-(2-hydroxyethylamino)propylamino)-12H-thiochromeno[2,3-c]quinolin-12-one] | > 1000
O=c1c2cc(F)ccc2sc2c(NCc3ccccc3)nc3ccc(F)cc3c12 [compound 7424, 6-(benzylamino)-2,10-difluoro-12H-thiochromeno[2,3-c]quinolin-12-one] | > 1000
CCNc1nc2ccccc2c2c(=O)c3cc(Cl)ccc3sc12 [compound 7736, 10-chloro-6-(ethylamino)-12H-thiochromeno[2,3-c]quinolin-12-one] | > 1000
O=c1c2cc(F)cc(F)c2sc2c(NCCCNCCO)nc3ccccc3c12 [compound 7253, 8,10-difluoro-6-(3-(2-hydroxyethylamino)propylamino)-12H-thiochromeno[2,3-c]quinolin-12-one] | > 1000
NCCCNc1nc2ccccc2c2c(=O)c3cc(C(F)(F)F)ccc3sc12 [compound 7201, 6-(3-aminopropylamino)-10-trifluoromethyl-12H-thiochromeno[2,3-c]quinolin-12-one] | > 1000
Nc1nc2ccccc2c2c(=O)c3cccc(Cl)c3sc12 [compound 7713, 6-Amino-8-chloro-12H-thiochromeno[2,3-c]quinolin-12-one] | > 1000
Nc1nc2ccccc2c2c(=O)c3ccc(Cl)cc3sc12 [compound 7723, 6-Amino-9-chloro-12H-thiochromeno[2,3-c]quinolin-12-one] | > 1000
O=c1c2cc(F)ccc2sc2c(-n3cccc3)nc3ccccc3c12 [compound 7750, 10-fluoro-6-(1H-pyrrol-1-yl)-12H-thiochromeno[2,3-c]quinolin-12-one] | > 1000
COCCCNc1nc2ccccc2c2c(=O)c3cc(OC)ccc3sc12 [compound 7743, 10-methoxy-6-(3-methoxypropylamino)-12H-thiochromeno[2,3-c]quinolin-12-one] | > 1000
CN(C)CCCNc1nc2ccccc2c2c(=O)c3cc(F)ccc3sc12 [compound 7732, 6-(3-(dimethylamino)propylamino)-10-fluoro-12H-thiochromeno[2,3-c]quinolin-12-one] | > 1000
O=c1c2cc(F)ccc2sc2c(N3CCCC3)nc3ccccc3c12 [compound 7747, 10-fluoro-6-(pyrrolidin-1-yl)-12H-thiochromeno[2,3-c]quinolin-12-one] | > 1000
O=c1c2cc(F)ccc2sc2c(N3CCN(Cc4ccccc4)CC3)nc3ccccc3c12 [compound 7758, 6-(4-benzylpiperazin-1-yl)-10-fluoro-12H-thiochromeno[2,3-c]quinolin-12-one] | > 1000
NCCCNc1nc2ccccc2c2c(=O)c3cc(F)cc(Cl)c3sc12 [compound 7213, 6-(3-aminopropylamino)-8-chloro-10-fluoro-12H-thiochromeno[2,3-c]quinolin-12-one] | > 1000
Nc1nc2ccccc2c2c(=O)c3c(Cl)cccc3sc12 [compound 7724, 6-Amino-11-chloro-12H-thiochromeno[2,3-c]quinolin-12-one] | > 1000
CNCCCNc1nc2ccccc2c2c(=O)c3cc(OC)ccc3sc12 [compound 7734, 10-methoxy-6-(3-(methylamino)propylamino)-12H-thiochromeno[2,3-c]quinolin-12-one] | 501 to 1000
COCCCNc1nc2ccccc2c2c(=O)c3cc(F)ccc3sc12 [compound 7730, 10-fluoro-6-(3-methoxypropylamino)-12H-thiochromeno[2,3-c]quinolin-12-one] | > 1000
O=c1c2cc(Cl)ccc2sc2c(OCCO)nc3ccccc3c12 [compound 7718, 10-chloro-6-(2-hydroxyethoxy)-12H-thiochromeno[2,3-c]quinolin-12-one] | > 1000
CN(C)CCCNc1nc2ccccc2c2c(=O)c3cc(Cl)ccc3sc12 [compound 7722, 10-chloro-6-(3-(dimethylamino)propylamino)-12H-thiochromeno[2,3-c]quinolin-12-one] | > 1000
CN1CCN(c2nc3ccccc3c3c(=O)c4cc(F)ccc4sc23)CC1 [compound 7740, 10-fluoro-6-(4-methylpiperazin-1-yl)-12H-thiochromeno[2,3-c]quinolin-12-one] | 501 to 1000
COc1ccc2nc(NCCCNCCO)c3sc4ccc(F)cc4c(=O)c3c2c1 [compound 7407, 10-fluoro-6-(3-(2-hydroxyethylamino)propylamino)-2-methoxy-12H-thiochromeno[2,3-c]quinolin-12-one] | > 1000
NCCCNc1nc2ccc(Cl)cc2c2c(=O)c3cc(F)ccc3sc12 [compound 7403, 6-((3-aminopropyl)amino)-2-chloro-10-fluoro-12H-thiochromeno[2,3-c]quinolin-12-one] | > 1000
O=c1c2cc(Cl)ccc2sc2c(NCCO)nc3ccccc3c12 [compound 7717, 10-chloro-6-(2-hydroxyethylamino)-12H-thiochromeno[2,3-c]quinolin-12-one] | > 1000

More lines, now with the values ahead:

IC50 [nM] | Structure (SMILES)
201 to 500 | CCN1CCN(c2nc3ccccc3c3c(=O)c4cc(F)ccc4sc23)CC1 [compound 7757, 6-(4-ethylpiperazin-1-yl)-10-fluoro-12H-thiochromeno[2,3-c]quinolin-12-one]
201 to 500 | COc1cccc2c(=O)c3c(sc12)c(NCCCNCCO)nc1ccccc13 [compound 7225, 6-(3-(2-hydroxyethylamino)propylamino)-8-methoxy-12H-thiochromeno[2,3-c]quinolin-12-one]
< 51 | NCCCNc1nc2ccccc2c2c(=O)c3cc(F)ccc3sc12 [compound 7707, 6-(3-aminopropylamino)-10-fluoro-12H-thiochromeno[2,3-c]quinolin-12-one]
201 to 500 | NCCCNc1nc2ccccc2c2c(=O)c3cc(F)cc(F)c3sc12 [compound 7252, 6-(3-aminopropylamino)-8,10-difluoro-12H-thiochromeno[2,3-c]quinolin-12-one]
< 51 | NCCNc1nc2ccccc2c2c(=O)c3cc(F)ccc3sc12 [compound 7754, 6-(2-aminoethylamino)-10-fluoro-12H-thiochromeno[2,3-c]quinolin-12-one]
< 51 | COc1cccc2c(=O)c3c(sc12)c(NCCCN)nc1ccccc13 [compound 7212, 6-(3-aminopropylamino)-8-methoxy-12H-thiochromeno[2,3-c]quinolin-12-one]
< 51 | NCCNc1nc2ccccc2c2c(=O)c3cc(Cl)ccc3sc12 [compound 7767, 6-(2-aminoethylamino)-10-cholor-12H-thiochromeno[2,3-c]quinolin-12-one]
201 to 500 | O=c1c2cccc(F)c2sc2c(NCCCNCCO)nc3ccccc3c12 [compound 7224, 8-fluoro-6-(3-(2-hydroxyethylamino)propylamino)-12H-thiochromeno[2,3-c]quinolin-12-one]
501 to 1000 | O=c1c2cccc(Cl)c2sc2c(NCCCNCCO)nc3ccccc3c12 [compound 7716, 8-chloro-6-(3-(2-hydroxyethylamino)propylamino)-12H-thiochromeno[2,3-c]quinolin-12-one]
51 to 200 | O=c1c2cc(F)ccc2sc2c(N3CCNCC3)nc3ccccc3c12 [compound 7739, 10-fluoro-6-(piperazin-1-yl)-12H-thiochromeno[2,3-c]quinolin-12-one]
51 to 200 | COc1ccc2sc3c(NCCCN)nc4ccccc4c3c(=O)c2c1 [compound 7711, 6-(3-aminopropylamino)-10-methoxy-12H-thiochromeno[2,3-c]quinolin-12-one]
51 to 200 | Cc1ccc2sc3c(NCCCN)nc4ccccc4c3c(=O)c2c1 [compound 7202, 6-(3-aminopropylamino)-10-methyl-12H-thiochromeno[2,3-c]quinolin-12-one]

From patent publication US11332476B2, “Fms-like tyrosine kinase inhibitors” (3SM BIOTRON INC., priority 2018, dated 2022)
